Experimental data: patent publication US8063225B2, “Tricyclic compound derivatives useful in the treatment of neoplastic diseases, inflammatory disorders and immunomodulatory disorders” (Chembridge Corporation, priority 2006, dated 2011)

Experiments:
[1] = system: MM1s; assay: Cell proliferation inhibition, MTT assay, MM1s; type: cell-based; conditions: Homo sapiens, MM1.S, 72 h, MM1S multiple myeloma cells, 3-day proliferation
Description: (§1) IGF1R and other tyrosine kinase inhibitors can inhibit the proliferation of certain cancer cell lines indicating their possible therapeutic utility for treating the corresponding cancer types. Cancer cell lines of interest and control normal lines, including CHO, HEK293, BA/F3, COLO205, PC3, DU145, MCF7, Panc1, ACHN, Hep G2, H460, K562, TT, U87-MG, CAOV-3, SK-MEL5, Karpas 299 and human multiple myeloma cell lines H929, MM1s, MM1r, UTMC2, CPM2, KMS11, My5, KMS12PE, My7, JJN3, KMS18, U266, SKMM2, RPMI-8226 are plated in white, clear-bottomed 384-well cell culture plates at 2500-5000 cells per well and supplied with dilutions of tested compounds After a desired period of time (typically 3 days), the number of viable cells is quantitated by using Cell Titer-Glo Luminescent Cell Viability Assay (Promega), a cell proliferation assay system based on detection of total amount of ATP present as a measure of cell metabolic activity. The plated cells are mixed with the Cell Titer-Glo developing reagent and counted in a luminescence multiwell plate reader according to the standard manufacturer's protocol to generate IC50 curves for cell proliferation inhibition. Results are typically reported as percent of growth (% viability =(OD72h(compound)−ODday0))/(OD72h(no compound)−ODday0). Alternatively, viable cells are quantitated by using the conventional colorimetric MTT assay. The MTT assay is based on the cleavage of the yellow tetrazolium salt MTT to purple formazan crystal by metabolic active cells. The formazan is then solubilized, and the concentration determined by optical density at 570 nm. The cells plated and incubated with a compound as described above are supplemented with the solution of MTT and incubated for 2-3 hours. The growth medium is removed and dimethyl sulfoxide is added into each well to dissolve the formazan. The absorbance is measured on an ELISA plate reader with a test wavelength of 570 nm and a background subtraction wavelength of 630 nm to obtain sample signal (OD570-OD630). […] The results are reported in terms of IC50 value for a particular compound and a cell line in the standard 3-day proliferation assay using Cell Titer-Glo. […] The results are reported in terms of IC50 value for a particular compound and a cell line in the standard 3-day proliferation assay using MTT assay.

[2] = system: CPM2; assay: Cell proliferation inhibition, MTT assay, CPM2; type: cell-based; conditions: Homo sapiens, Multiple myeloma cell, 72 h, CPM2 multiple myeloma cells, 3-day proliferation
Description: as §1

[3] = system: KMS11; assay: Cell proliferation inhibition, MTT assay, KMS11; type: cell-based; conditions: Homo sapiens, KMS-11, 72 h, KMS11 multiple myeloma cells, 3-day proliferation
Description: as §1

[4] = system: H929; assay: Cell proliferation inhibition, MTT assay, H929; type: cell-based; conditions: Homo sapiens, NCI-H929, 72 h, H929 multiple myeloma cells, 3-day proliferation
Description: as §1

[5] = system: MM1r; assay: Cell proliferation inhibition, MTT assay, MM1r; type: cell-based; conditions: Homo sapiens, MM.1R, 72 h, MM1R multiple myeloma cells, 3-day proliferation
Description: as §1

[6] = system: HEK293 (human normal embryonic kidney); assay: Cell proliferation inhibition, MTT assay, HEK293; type: cell-based; conditions: 72 h, HEK293 cells, 3-day proliferation, read-out: HEK IC50
Description: as §1

[7] = system: UTMC2; assay: Cell proliferation inhibition, MTT assay, UTMC2; type: cell-based; conditions: Homo sapiens, 72 h, UTMC2 multiple myeloma cells, 3-day proliferation
Description: as §1

[8] = system: CHO (chinese hamster ovary); assay: Cell proliferation inhibition, MTT assay, CHO; type: cell-based; conditions: Cricetulus griseus, 72 h, CHO cells, 3-day proliferation
Description: as §1

[9] = target: T1, InsR (Homo sapiens, UniProt P06213); assay: Tyrosine kinase assay (Kinase-Glo or AlphaScreen), InsR; conditions: biochemical tyrosine kinase assay
T1 construct: 6×His- or GST-tagged kinase domain fragments of the corresponding RTKs expressed in baculovirus system; host or cells: baculovirus system
Procedure, shortened: (§2)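 Recombinant His- or GST-tagged kinase domains from baculovirus were assayed with poly(Glu-Tyr, 4:1) substrate and 10 μM ATP in Tris-HCl pH 7.5 with Mg2+/Mn2+. Kinase-Glo: 37° C for 60 minutes, residual ATP read by luminescence. IC50 from non-linear regression over eight concentrations, 1 nM to 20 μM.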

[10] = target: T2, Alk (Homo sapiens, UniProt Q9UM73); assay: Tyrosine kinase assay (Kinase-Glo or AlphaScreen), Alk; conditions: biochemical tyrosine kinase assay
T2 construct: 6×His- or GST-tagged kinase domain fragments of the corresponding RTKs expressed in baculovirus system; host or cells: baculovirus system
Procedure, shortened: as §2

[11] = target: T3, Jak2 (Homo sapiens, UniProt O60674); assay: Tyrosine kinase assay (Kinase-Glo or AlphaScreen), Jak2; conditions: biochemical tyrosine kinase assay
T3 construct: 6×His- or GST-tagged kinase domain fragments of the corresponding RTKs expressed in baculovirus system; host or cells: baculovirus system
Procedure, shortened: as §2

[12] = target: T4, TrkA (Homo sapiens, UniProt P04629); assay: Tyrosine kinase assay (Kinase-Glo or AlphaScreen), TrkA; conditions: biochemical tyrosine kinase assay
T4 construct: 6×His- or GST-tagged kinase domain fragments of the corresponding RTKs expressed in baculovirus system; host or cells: baculovirus system
Procedure: To determine inhibition of several tyrosine kinases, such as IGF1R, InsR, Alk, TrkA and Jak2, kinase assays are conducted using either Kinase-Glo (Promega) or AlphaScreen (PerkinElmer) kinase assay platforms. The Kinase-Glo Luminescent Kinase Assay is a homogeneous method for measuring kinase activity by determining the amount of ATP remaining after a kinase reaction. The luminescent signal is proportional to the amount of ATP and inversely proportional to the amount of kinase activity. Tyrosine kinase PT66 AlphaScreen Assay is a high-sensitivity homogeneous, anti-phosphotyrosine antibody-mediated luminescent proximity method measuring, incorporation of phosphate in synthetic poly(Glu-Tyr) substrate. The kinase preparations used consist of purified recombinant, 6×His- or GST-tagged kinase domain fragments of the corresponding RTKs expressed in baculovirus system.
The IGF1R tyrosine kinase is assayed in Kinase-Glo ATP depletion assay using the synthetic polymer poly(Glu-Tyr, 4:1) (Sigma Chemicals) as a phosphoacceptor substrate. Each reaction mixture consists of a total volume of 10 μl and contains 40 ng of the enzyme, 5 μg of poly(Glu-Tyr), 10 μM of ATP and variable concentrations of test compounds. The mixtures also contain 50 mM Tris-HCl, pH 7.5; 5 mM MgCl2; 5 mM MnCl2; 2 mM DTT and 0.01% Tween 20. The reaction mixtures are incubated at 37° C. for 60 minutes and residual concentration of ATP in the mixture is determined by adding luciferase-containing Kinase-Glo (Promega) development reagent and counting luminescence levels using Fusion Universal Microplate Analyzer (PerkinElmer). Tested compounds are dissolved in dimethyl sulfoxide to a stock concentration of 10 mM and are typically evaluated in the assay at eight concentrations in 1 nM to 20 μM range, each in quadruplicate. […] IC50 values are derived by non-linear regression analysis using Prism 3.0 software (Graphpad Software). Other tyrosine kinases are assayed according to the same protocol after titrating amount of the enzyme to provide optimal signal-to-noise ratio and no more than 30% of total ATP consumption in the reaction conditions used.
The IGF1R tyrosine kinase is assayed in Phosphotyrosine (PT66 or PT 100) AlphaScreen chemiluminescent assay (PerkinElmer) according to the manufacturerer's recommendations. Each kinase reaction mixture consists of a total volume of 15 μl and contains 0.1-1 ng of the enzyme, 7 ng of biotinylated poly(Glu-Tyr) (Cis-Bio), 10 μM of ATP and variable concentrations of test compounds. The mixtures also contain 50 mM Tris-HCl, pH 7.5; 5 mM MgCl2; 5 mM MnCl2; 2 mM DTT and 0.01% Tween 20. The reaction mixtures are incubated at room temperature for 30 minutes. Ten (10) μl of the mixture of […] and donor beads (as supplied by the manufacturer) is then added to the reaction and the incubation is continued for an additional 60 minutes.

[13] = system: H929 (multiple myeloma); assay: Cell proliferation inhibition, Cell Titer-Glo, H929; type: cell-based; conditions: Homo sapiens, NCI-H929; cell proliferation assay, H929 cells
Procedure, shortened: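 Cells seeded at 2500-5000 per well with serially diluted compound for typically 3 days. Viable cells measured by ATP luminescence (Cell Titer-Glo); IC50 from proliferation-inhibition curves.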

[14] = system: K562; assay: Cell proliferation inhibition, Cell Titer-Glo, K562; type: cell-based; conditions: Homo sapiens; cell proliferation assay, K562 cells
Procedure, shortened: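 K562 cells were seeded at 2500-5000 cells per well in white, clear-bottomed 384-well culture plates and treated with dilutions of test compounds for typically 3 days. Viable cells were quantified with the Cell Titer-Glo Luminescent Cell Viability Assay (Promega), which measures total ATP, read on a luminescence plate reader to derive IC50 values for proliferation inhibition.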

[15] = system: Karpas-299; assay: Cell proliferation inhibition, Cell Titer-Glo, Karpas-299; type: cell-based; conditions: Homo sapiens; cell proliferation assay, Karpas-299 cells
Procedure, shortened: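 Karpas 299 cells were seeded into white, clear-bottomed 384-well culture plates at 2500-5000 cells per well and exposed to serial dilutions of test compounds for about 3 days. Viable cell numbers were then measured with the Cell Titer-Glo Luminescent Cell Viability Assay (Promega), which detects total ATP, and IC50 values for proliferation inhibition were derived.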

[16] = system: Ba/F3; assay: Cell proliferation inhibition, Cell Titer-Glo, Ba/F3; type: cell-based; conditions: Mus musculus, BaF3; cell proliferation assay, Ba/F3 cells
Procedure, shortened: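 Ba/F3 cells were seeded at 2500-5000 cells per well in white, clear-bottomed 384-well culture plates and exposed to serial dilutions of test compounds for 3 days. Cell Titer-Glo Luminescent Cell Viability Assay (Promega) reagent, which measures total ATP as an indicator of metabolic activity, was added. Luminescence was read on a multiwell plate reader to derive IC50 values for inhibition of proliferation.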

[17] = target: T5, IGF1R tyrosine kinase (Homo sapiens, UniProt P08069); assay: IGF1R tyrosine kinase assay (Kinase-Glo ATP depletion or PT66/PT100 AlphaScreen); conditions: biochemical tyrosine kinase assay
T5 construct: 6×His- or GST-tagged kinase domain fragments of the corresponding RTKs expressed in baculovirus system; host or cells: baculovirus system
Procedure, shortened: as §2

T2 sequence (Q9UM73 1116-1392 limits assumed, species assumed): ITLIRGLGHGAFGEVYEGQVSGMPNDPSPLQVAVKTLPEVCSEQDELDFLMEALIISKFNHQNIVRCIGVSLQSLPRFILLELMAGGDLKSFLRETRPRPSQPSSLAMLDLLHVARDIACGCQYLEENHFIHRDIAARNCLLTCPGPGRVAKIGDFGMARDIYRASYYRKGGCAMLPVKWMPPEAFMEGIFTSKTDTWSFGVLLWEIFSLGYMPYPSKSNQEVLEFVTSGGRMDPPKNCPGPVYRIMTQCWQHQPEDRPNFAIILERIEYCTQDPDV
T4 sequence (P04629 510-781 limits assumed, species assumed): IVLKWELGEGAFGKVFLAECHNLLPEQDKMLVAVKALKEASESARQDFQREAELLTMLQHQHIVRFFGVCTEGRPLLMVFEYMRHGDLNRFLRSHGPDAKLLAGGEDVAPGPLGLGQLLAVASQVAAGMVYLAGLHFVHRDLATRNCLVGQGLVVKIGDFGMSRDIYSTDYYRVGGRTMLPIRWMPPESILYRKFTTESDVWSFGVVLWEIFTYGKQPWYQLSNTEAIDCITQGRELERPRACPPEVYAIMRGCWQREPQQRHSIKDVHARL
T1 sequence (P06213 1023-1298 limits assumed, species assumed): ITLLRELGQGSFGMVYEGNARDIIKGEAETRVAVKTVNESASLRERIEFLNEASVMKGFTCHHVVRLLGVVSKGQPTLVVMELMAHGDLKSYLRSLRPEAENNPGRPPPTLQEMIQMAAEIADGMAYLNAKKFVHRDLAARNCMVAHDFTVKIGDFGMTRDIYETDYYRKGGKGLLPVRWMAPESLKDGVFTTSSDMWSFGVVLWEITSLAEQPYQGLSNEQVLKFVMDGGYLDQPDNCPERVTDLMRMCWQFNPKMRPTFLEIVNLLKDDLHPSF
T3 sequence (O60674 849-1124 limits assumed, species assumed): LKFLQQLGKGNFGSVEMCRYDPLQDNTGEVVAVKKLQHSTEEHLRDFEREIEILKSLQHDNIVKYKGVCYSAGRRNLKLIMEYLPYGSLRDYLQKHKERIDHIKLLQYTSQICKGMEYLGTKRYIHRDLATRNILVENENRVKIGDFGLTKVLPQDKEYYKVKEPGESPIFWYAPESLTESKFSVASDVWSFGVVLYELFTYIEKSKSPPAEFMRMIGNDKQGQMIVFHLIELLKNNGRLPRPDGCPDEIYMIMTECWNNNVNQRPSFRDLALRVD
T5 sequence (P08069 999-1274 limits assumed): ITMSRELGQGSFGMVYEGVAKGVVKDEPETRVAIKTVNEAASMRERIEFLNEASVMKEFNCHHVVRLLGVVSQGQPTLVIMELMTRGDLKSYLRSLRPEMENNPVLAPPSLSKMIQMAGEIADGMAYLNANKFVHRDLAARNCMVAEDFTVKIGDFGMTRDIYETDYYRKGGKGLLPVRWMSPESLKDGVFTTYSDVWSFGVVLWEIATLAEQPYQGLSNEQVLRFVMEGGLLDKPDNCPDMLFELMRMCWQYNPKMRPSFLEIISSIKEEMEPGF

SMILES | IC50 [1] [nM] | IC50 [4] [nM] | IC50 [5] [nM] | IC50 [9] [nM] | IC50 [10] [nM] | IC50 [11] [nM] | IC50 [12] [nM] | IC50 [13] [nM] | IC50 [14] [nM] | IC50 [15] [nM] | IC50 [16] [nM] | IC50 [17] [nM] | IC50 [2] [nM] | IC50 [3] [nM] | IC50 [6] [nM] | IC50 [7] [nM] | IC50 [8] [nM]
Cc1ccc(OCC(=O)CNc2cc[nH]c(=O)c2-c2nc3cc4c(cc3[nH]2)CN(C2CCN(C)CC2)C4=O)c(C)c1 [drawing 838] | < 500 | < 500 | 500 to 1000 |  |  |  |  |  |  |  |  |  | 1000 to 5000 | 1000 to 5000 | ≥ 20000 | 500 to 1000 | ≥ 20000
CCc1cc2c(cc1OCC(=O)CNc1cc[nH]c(=O)c1-c1nc3cc4c(cc3[nH]1)C(=O)N(C1CCN(C)CC1)C4)OCO2 [drawing 842] | < 500 | 500 to 1000 | 1000 to 5000 |  |  |  |  |  |  |  |  |  | 1000 to 5000 | 1000 to 5000 | ≥ 20000 | < 500 | ≥ 20000
Cc1ccc(OCC(=O)CNc2cc[nH]c(=O)c2-c2nc3cc4c(cc3[nH]2)CN(CCCN2CCCC2)C4=O)c(C)c1 [drawing 840] | 1000 to 5000 | 500 to 1000 | 1000 to 5000 |  |  |  |  |  |  |  |  |  | 5000 to 20000 | 5000 to 20000 | ≥ 20000 | 500 to 1000 | ≥ 20000

Further lines, with some results ahead:

IC50 [1] [nM] | IC50 [4] [nM] | IC50 [5] [nM] | IC50 [9] [nM] | IC50 [10] [nM] | IC50 [11] [nM] | IC50 [12] [nM] | IC50 [13] [nM] | IC50 [14] [nM] | IC50 [15] [nM] | IC50 [16] [nM] | IC50 [17] [nM] | SMILES | IC50 [2] [nM] | IC50 [3] [nM] | IC50 [6] [nM] | IC50 [7] [nM] | IC50 [8] [nM]
 |  |  | 500 to 5000 | 500 to 5000 | 500 to 5000 | < 500 | > 15000 | > 15000 | > 15000 | > 15000 | < 500 | Cc1c(Cl)cccc1OC[C@H](O)CNc1cc[nH]c(=O)c1-c1nc2cc3c(cc2[nH]1)C(=O)N(C1CCN(CCCO)CC1)C3=O [compound 135] |  |  |  |  | 
 |  |  | < 500 | 5000 to 15000 | < 500 | < 500 |  |  |  |  | < 500 | CN1CCC(N2Cc3cc4nc(-c5c(NC[C@@H](O)COc6c(F)ccc(Cl)c6F)cc[nH]c5=O)[nH]c4cc3C2=O)CC1 [compound 134] |  |  |  |  | 
